Data as given in patent US12453731B2, “Aniline-based WDR5 protein-protein interaction inhibitor, and preparation method and use thereof” (CHINA PHARMACEUTICAL UNIVERSITY, priority 2019, dated 2025).

Tests used:
[1] = tested on: MV4-11 human acute mononuclear leukemia cells; assay: anti-proliferative activity against leukemia cells MV4-11; format: cell-based; settings: Homo sapiens, MV4-11, MV4-11 cells; read-out: GI50 (MV-411)
From the text: (§1) Some compounds of the present disclosure have also been tested for the antiproliferative activity against leukemia cells.

[2] = tested on: methylation level of H3K4; assay: inhibition of the methylation level of H3K4 (methyltransferase activity); format: biochemical
MLL1-WDR5 PPI = MLL1-WDR5 PPI (Homo sapiens (Human), UniProt P61964); assay: fluorescent probe assay of MLL1-WDR5 protein-protein interaction inhibition; format: binding; settings: fluorescent probe based on MLL1 peptide, incubation 0.5 hrs, read-out: MLL1-WDR5 PPI inhibiting activity IC50
Description: In the present disclosure, a fluorescent molecular probe was constructed based on a MLL1 peptide fragment binding to WDR5, for use as a method for study on an aniline compound interfering with WDR5 protein-protein interaction, to determine an inhibition rate of the aniline compound at various concentrations, and then compute the IC50 value. Specific experimental steps: 20 μL of WDR5 protein, 20 μL of a fluorescent probe, and 20 μL of a compound of different concentration gradients were added to a 384-well plate respectively. After incubation for 0.5 hrs, the fluorescence was read on a multifunctional microplate reader at an excitation wavelength of 485 nm and an emission wavelength of 535 nm, to compute the mP value. The inhibition rate was computed as per the formula below, and then the IC50 value was computed using GraphPad software.

[3] = tested on: Molm-13 human acute myeloid leukemia cells; assay: anti-proliferative activity against leukemia cells Molm-13; format: cell-based; settings: Homo sapiens, MOLM-13, Molm-13 cells
From the text: as §1

[4] = tested on: MLL1 (H3K4me1/2/3 expression level); assay: Western blot, methyltransferase function of MLL1 at the cellular level; format: cell-based; settings: FIG. 1
From the text: Moreover, some compounds have also been tested by Western-blot.

MV4-11 tumor = assay: MV4-11 nude mouse xenograft tumor model; format: in vivo; settings: MV4-11 xenograft in nude mice, oral administration, FIG. 3
From the text: In addition, some of the compounds of the present disclosure have also been tested for the anti-tumor activity at the animal level. A nude mice xenograft tumor model of leukemia cells MV4-11 was selected for oral administration.

Hox and Meis-1 genes = assay: RT-PCR, expression of downstream Hox and Meis-1 genes at the cellular level; format: cell-based; settings: FIG. 2
From the text: Furthermore, some of the compounds of the present disclosure have also been subjected to a RT-PCR experiment at the cellular level. The results of the inhibitory effect of some compounds on the expression levels of downstream Hox and Meis-1 genes at the cellular level are shown in FIG. 2.

COC(=O)c1cn(-c2ccc(N3CCN(C)CC3)c(Nc3ncnc(Cl)c3N)c2)nn1 [Example 46, Methyl 1-(3-((5-amino-6-chloropyrimidin-4-yl)amino)-4-(4-methylpiperazin-1-yl)phenyl)-1H-1,2,3-triazole-4-carboxylate]
GI50 [1]: 22.4 µM | Whether the methylation level of H3K4 was inhibited [2]: Yes | IC50 (MLL1-WDR5 PPI): 0.865 µM | GI50 [3]: 11.7 µM

CN1CCN(c2ccc(-n3cc(C(=O)N4CCOCC4)nn3)cc2Nc2ncnc(Cl)c2N)CC1 [Example 47, (1-(3-((5-amino-6-chloropyrimidin-4-yl)amino)-4-(4-methylpiperazin-1-yl)phenyl)-1H-1,2,3-triazole-4-yl)(morpholino)methanone]
GI50 [1]: 10.6 µM | Whether the methylation level of H3K4 was inhibited [2]: Yes | IC50 (MLL1-WDR5 PPI): 0.24 µM | GI50 [3]: 14.7 µM

CN1CCN(c2ccc(-c3ccc(C(=O)N(C)C)cc3)c(F)c2Nc2ncnc(Cl)c2N)CC1 [Example 54, 3″-((5-amino-6-chloropyrimidin-4-yl)amino)-2′-fluoro-N,N-dimethyl-4″-(4-methylpiperazin-1-yl)-[1,1′-biphenyl]-4-carboxamide]
GI50 [1]: 17.5 µM | Whether the methylation level of H3K4 was inhibited [2]: Yes | IC50 (MLL1-WDR5 PPI): 0.24 µM | GI50 [3]: 16.2 µM

CN1CCN(c2ccc(-c3ccc(C(=O)N4CCOCC4)cc3)c(F)c2Nc2ncnc(Cl)c2N)CC1 [Example 55, (3″-((5-amino-6-chloropyrimidin-4-yl)amino)-2′-fluoro-4″-(4-methylpiperazin-1-yl)-[1,1′-biphenyl]-4-yl)(morpholino)methanone]
GI50 [1]: 22.5 µM | Whether the methylation level of H3K4 was inhibited [2]: Yes | IC50 (MLL1-WDR5 PPI): 0.117 µM | GI50 [3]: 28.9 µM

CN1CCN(c2ccc(-c3ccc(C(=O)NCCN4CCOCC4)cc3)c(F)c2Nc2ncnc(Cl)c2N)CC1 [Example 56]
GI50 [1]: 9.04 µM | Whether the methylation level of H3K4 was inhibited [2]: Yes | IC50 (MLL1-WDR5 PPI): 0.102 µM | GI50 [3]: 8.43 µM

CN1CCN(c2ccc(-c3ccc(C(=O)NCCCN4CCOCC4)cc3)c(F)c2Nc2ncnc(Cl)c2N)CC1 [Example 57]
GI50 [1]: 22.3 µM | Whether the methylation level of H3K4 was inhibited [2]: Yes | IC50 (MLL1-WDR5 PPI): 0.069 µM | GI50 [3]: 17.6 µM

CCN1CCN(C(=O)c2ccc(-c3ccc(N4CCN(C)CC4)c(Nc4ncnc(Cl)c4N)c3F)cc2)CC1 [Example 58, (3″-((5-amino-6-chloropyrimidin-4-yl)amino)-2′-fluoro-4″-(4-methylpiperazin-1-yl)-[1,1′-biphenyl]-4-yl)(4-ethylpiperazin-1-yl)methanone]
GI50 [1]: 19.5 µM | Whether the methylation level of H3K4 was inhibited [2]: Yes | IC50 (MLL1-WDR5 PPI): 0.112 µM | GI50 [3]: 20.3 µM

CN1CCN(c2ccc(-c3ccc(NC(=O)C4CCOCC4)cc3)c(F)c2Nc2ncnc(Cl)c2N)CC1 [Example 59, N-(3″-((5-amino-6-chloropyrimidin-4-yl)amino)-2′-fluoro-4″-(4-methylpiperazin-1-yl)-[1,1′-biphenyl]-4-yl)tetrahydro-2H-pyran-4-carboxamide]
GI50 [1]: 26.4 µM | Whether the methylation level of H3K4 was inhibited [2]: Yes | IC50 (MLL1-WDR5 PPI): 0.176 µM | GI50 [3]: 31.2 µM

CN1CCC(C(=O)Nc2ccc(-c3ccc(N4CCN(C)CC4)c(Nc4ncnc(Cl)c4N)c3F)cc2)CC1 [Example 60, N-(3″-((5-amino-6-chloropyrimidin-4-yl)amino)-2′-fluoro-4″-(4-methylpiperazin-1-yl)-[1,1′-biphenyl]-pyridin-4-yl)-1-methylpiperidin-4-carboxamide]
GI50 [1]: 22.7 µM | Whether the methylation level of H3K4 was inhibited [2]: Yes | IC50 (MLL1-WDR5 PPI): 0.105 µM | GI50 [3]: 22.6 µM

CN1CCN(c2ccc(-c3ccc(NC(=O)CC4CCOCC4)cc3)c(F)c2Nc2ncnc(Cl)c2N)CC1 [Example 61]
GI50 [1]: 21.1 µM | Whether the methylation level of H3K4 was inhibited [2]: Yes | IC50 (MLL1-WDR5 PPI): 0.085 µM | GI50 [3]: 20.5 µM

CC(C)C(N)C(=O)Nc1ccc(-c2ccc(N3CCN(C)CC3)c(Nc3ncnc(Cl)c3N)c2F)cc1 (stereo not drawn) [Example 62, 2-amino-N-(3″-((5-amino-6-chloropyrimidin-4-yl)amino)-2′-fluoro-4″-(4-methylpiperazin-1-yl)-[1,1′biphenylyl]-4-yl)-3-methylbutyramide]
GI50 [1]: 17.4 µM | Whether the methylation level of H3K4 was inhibited [2]: Yes | IC50 (MLL1-WDR5 PPI): 0.034 µM | GI50 [3]: 22 µM

CN1CCN(c2ccc(-c3ccc(NC(=O)CN)cc3)c(F)c2Nc2ncnc(Cl)c2N)CC1 [Example 64, 2-amino-N-(3″-((5-amino-6-chloropyrimidin-4-yl)amino)-2′-fluoro-4″-(4-methylpiperazin-1-yl)-[1,1′biphenylyl]-4-yl)acetamide]
GI50 [1]: 20.4 µM | Whether the methylation level of H3K4 was inhibited [2]: Yes | IC50 (MLL1-WDR5 PPI): 0.033 µM | GI50 [3]: 28.6 µM

CN1CCN(c2cc(F)c(-c3ccc(C(=O)N4CCOCC4)cc3)cc2Nc2ncnc(Cl)c2N)CC1 [Example 67, (5″-((5-amino-6-chloropyrimidin-4-yl)amino)-2′-fluoro-4″-(4-methylpiperazin-1-yl)-[1,1′-biphenyl]-4-yl)(morpholino)methanone]
GI50 [1]: 19.6 µM | Whether the methylation level of H3K4 was inhibited [2]: Yes | IC50 (MLL1-WDR5 PPI): 0.036 µM | GI50 [3]: 16.5 µM

CN1CCN(c2cc(F)c(-c3ccc(C(=O)NCCN4CCOCC4)cc3)cc2Nc2ncnc(Cl)c2N)CC1 [Example 68]
GI50 [1]: 27.7 µM | Whether the methylation level of H3K4 was inhibited [2]: Yes | IC50 (MLL1-WDR5 PPI): 0.074 µM | GI50 [3]: 23.1 µM

CN1CCN(c2cc(F)c(-c3ccc(C(=O)NCCCN4CCOCC4)cc3)cc2Nc2ncnc(Cl)c2N)CC1 [Example 69]
GI50 [1]: 25.6 µM | Whether the methylation level of H3K4 was inhibited [2]: Yes | IC50 (MLL1-WDR5 PPI): 0.021 µM | GI50 [3]: 17.3 µM

CN1CCN(c2cc(F)c(-c3ccc(C(=O)N4CCC(O)CC4)cc3)cc2Nc2ncnc(Cl)c2N)CC1 [Example 70]
GI50 [1]: 20.2 µM | Whether the methylation level of H3K4 was inhibited [2]: Yes | IC50 (MLL1-WDR5 PPI): 0.033 µM | GI50 [3]: 13.2 µM

CN1CCN(c2cc(F)c(-c3ccc(C(=O)NCC4CCOCC4)cc3)cc2Nc2ncnc(Cl)c2N)CC1 [Example 71, 5″-((5-amino-6-chloropyrimidin-4-yl)amino)-2′-fluoro-4″-(4-methylpiperazin-1-yl)-N-((tetrahydro-2H-pyran-4-yl)methyl)-[1,1′-biphenylyl]-4-carboxamide]
GI50 [1]: 15.7 µM | Whether the methylation level of H3K4 was inhibited [2]: Yes | IC50 (MLL1-WDR5 PPI): 0.036 µM | GI50 [3]: 12.3 µM

CN1CCN(c2cc(F)c(-c3ccc(C(=O)N(C)C)cc3)cc2Nc2ncnc(Cl)c2N)CC1 [Example 72, 5″-((5-amino-6-chloropyrimidin-4-yl)amino)-2′-fluoro-N,N-dimethyl-4″-(4-methylpiperazin-1-yl)-[1,1′-biphenyl]-4-carboxamide]
GI50 [1]: 12.6 µM | Whether the methylation level of H3K4 was inhibited [2]: Yes | inhibition of catalytic activity of MLL1, expression level of H3K4me1/2/3 [4]: inhibit the catalytic activity of MLL1 dose-dependently | IC50 (MLL1-WDR5 PPI): 0.029 µM | GI50 [3]: 13.1 µM | inhibition of tumor growth (MV4-11 tumor): inhibit the tumor growth dose-dependently | expression levels of Hox and Meis-1 genes (Hox and Meis-1 genes): down-regulate the expression levels of Hox and Meis-1 genes dose-dependently
